From patent publication US12285426B2, “Combination serotonin specific reuptake inhibitor and serotonin 1A receptor partial agonist for reducing L-DOPA-induced dyskinesia” (The Research Foundation for The State University of new York, priority 2018, dated 2025)

Tests used:
DRN 5-HT neurons = assay: Example 3: in vivo single-unit recording of DRN 5-HT neurons; set-up: species or system rat; settings: 8-OH-DPAT 1 μg/kg i.v.; WAY-100635 100 μg/kg i.v.
Excerpt: Burr holes (˜1 mm in diameter) were drilled in the skull overlying the DRN of non-lesioned rats. Prior to experimentation all animals were anesthetized with urethane (1.5 g/kgi.p.) and placed in a stereotaxic apparatus. Bipolar stimulating/recording electrodes were implanted in the frontal cortex and DRN on the right side using a micromanipulator (coordinates from Bregma: AP: 3.2 mm; ML: 0.8 mm lateral; DV: 4.4 mm ventral (frontal cortex) or AP: 7.8 mm; ML 3.1 mm; DV: 7.5 mm with the manipulator angled 30 degrees toward Bregma) as previously described [Chakroborty 2017].
Electrophysiology: Recording microelectrodes were manufactured from 2.0 mm OD borosilicate glass capillary tubing and filled with sodium chloride (2M) solution. […] Temperature was monitored using a rectal probe and maintained at 37 C.° using a heating pad (VI-20F, Fintronics Inc., Orange, CT). […] Once isolated, recordings consisted of basal (pre-drug), saline vehicle, and drug-treatment-(see below) induced changes in spike activity recorded in a series of 3 min duration epochs.
All compounds and physiological 0.9% saline were prepared daily and administered intravenously (i.v.) through the lateral tail vein to enable rapid examination of potential acute effects of vehicle or drug on DRN neuronal activity. […] DRN 5-HT neuron activity was recorded prior to and immediately following drug administration as described above.

[1] = biological target: T1, 5-HT1A receptor expressed in SF9 cells (Homo sapiens, UniProt P08908); settings: cited from earlier work
T1 construct: expressed in transfected cells; host or cells: SF9 cells
T1 sequence (P08908 1-422): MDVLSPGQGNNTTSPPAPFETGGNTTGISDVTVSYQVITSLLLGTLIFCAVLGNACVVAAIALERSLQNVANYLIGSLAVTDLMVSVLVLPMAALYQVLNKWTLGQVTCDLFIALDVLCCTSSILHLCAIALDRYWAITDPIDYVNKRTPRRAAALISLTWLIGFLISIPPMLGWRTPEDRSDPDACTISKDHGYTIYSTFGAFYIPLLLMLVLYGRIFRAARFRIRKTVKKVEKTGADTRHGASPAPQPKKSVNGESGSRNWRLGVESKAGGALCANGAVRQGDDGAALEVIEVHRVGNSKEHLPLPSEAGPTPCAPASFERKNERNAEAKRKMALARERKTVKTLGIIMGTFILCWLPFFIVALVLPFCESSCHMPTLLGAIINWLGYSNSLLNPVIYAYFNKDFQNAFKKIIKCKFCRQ

[2] = system: 6-OHDA-lesioned rats, L-DOPA-induced dyskinesia; assay: Experiment 1: AIMs, established LID in L-DOPA-primed hemi-parkinsonian rats; type: in vivo, rat; settings: LD 6 mg/kg s.c. vs L-DOPA vehicle
[3] = system: 6-OHDA-lesioned rats, forelimb akinesia; assay: Experiment 1: forepaw adjusting steps (FAS); type: in vivo, rat; settings: LD 6 mg/kg alone or with VZD 10/20 mg/kg
Excerpt: Conti et al., 2014). […] Forepaw adjusting steps (FAS): The FAS test is a measure of forelimb akinesia performed according to previous protocols (Bishop et al., 2012; Chang et al., 1999). Data are presented as mean percent intact stepping where the sum of the total steps with the lesioned forepaw was divided by the total steps with the unlesioned forepaw multiplied by 100. Lower percent intact scores indicate greater forelimb akinesia. Prior to baseline, rats received 2 acclimation periods. On-treatment FAS was performed 60 min post-L-DOPA.

[4] = system: striatum and DRN monoamines and metabolites; assay: Experiment 1: HPLC of striatal and dorsal raphe tissue monoamines; type: in vivo, rat
Method: Rats (n=30) were rendered hemi-parkinsonian with unilateral 6-OHDA lesions of the left MFB. Three-weeks post-lesion, animals were divided into 2 equally disabled groups, measured by forepaw adjusting steps (FAS, see below). One group (n=8) began receiving 14 days of daily vehicle (0.9% NaCl+0.1% ascorbic acid) and the other (n=22) received L-DOPA methyl ester (6 mg/kg, s.c.; Sigma)+DL-serine 2-(2,3,4-trihydroxybenzyl) hydrazine hydrochloride (benserazide; 15 mg/kg, s.c.; Sigma), hereafter L-DOPA, dissolved in vehicle at a volume of 1 mL/kg. […] Thereafter, L-DOPA-treated animals with Axial, Limb, and Orolingual (ALO) AIMs (see description below, FIG. 1A)<30 were excluded from the study and the remaining L-DOPA-treated animals were divided into 3 equally dyskinetic groups. […] Daily injections continued over 23 days, with behavior assayed on Days 15, 22, 29, and 36. On Day 37, animals were killed 60 min post-treatment. Left and right dorsal striata and DRN were dissected and flash frozen for HPLC analyses.
High-performance liquid chromatography (HPLC): HPLC, a method for semi-automated catecholamine analysis with coulometric detection, was performed according to prior protocols (Bishop et al., 2009) to determine the tissue levels of monoamines, their metabolites, and monoamine turnover in the striatum and DRN. The limit of detection for DOPAC, DA, 5-hydroxyindoleacetic acid (5-HIAA) and 5-HT was 10^−10 M. Final oxidation current values were plotted on a standard curve from 10^−6 M to 10^−9 M and expressed as pg of monoamine or metabolite per mg of tissue unless otherwise specified.
On the final treatment day, animals were sacrificed 60 min post-LD treatment and left and right striata and dorsal raphe nucleus (DRN) were collected for high performance liquid chromatography (HPLC) analysis. Values (means±standard mean error) are expressed as picograms of monoamine or metabolite per milligram wet tissue weight. Turnover estimates were determined by dividing a subject's metabolite value by its corresponding monoamine.

[5] = system: 6-OHDA-lesioned rats, forelimb akinesia; assay: Experiment 2: forepaw adjusting steps (FAS); type: in vivo, rat; settings: LD 6 mg/kg alone or with VZD
Excerpt: Forepaw adjusting steps (FAS): The FAS test is a measure of forelimb akinesia performed according to previous protocols (Bishop et al., 2012; Chang et al., 1999). Data are presented as mean percent intact stepping where the sum of the total steps with the lesioned forepaw was divided by the total steps with the unlesioned forepaw multiplied by 100. Lower percent intact scores indicate greater forelimb akinesia. Prior to baseline, rats received 2 acclimation periods. On-treatment FAS was performed 60 min post-L-DOPA.

[6] = system: lesion-induced motor deficits; assay: FIG. 23D: % intact stepping; type: in vivo; settings: L-DOPA alone or with AMA 40 mg/kg and/or VZD 2.5 mg/kg
[7] = in vivo; cited from earlier work
[8] = system: striatal c-Fos, PPD, PPE, PPT, 5-HT1AR mRNA; assay: Experiment 2: real-time RT-PCR of striatal gene expression
[9] = system: 6-OHDA-lesioned rats, L-DOPA-induced dyskinesias; assay: Example 2: LIDs scoring in unilateral 6-OHDA-lesioned rats; type: in vivo, rat; settings: vilazodone 10 mg/kg or escitalopram 12.5 mg/kg + L-DOPA 5 mg/kg, 2 weeks
Method: 6-OHDA-induced dopaminergic lesions: Adult male Sprague-Dawley rats were randomly assigned to groups receiving either a 6-OHDA or sham lesion. […] [[…] 2019]. […] Rats were treated for 5 consecutive days/week (Mon-Fri), for 2 weeks. […] All rats were evaluated three times per week for the presence of L-DOPA-induced dyskinesias (LIDs) (Wed-Fri) and once for the stepping test (Tue). […] Scores were given over 1 min epochs and classified as axial, limb, orolingual and locomotive. […] The severity of each LID was scored using a standard scale. Each dyskinetic behavior was given an intensity and frequency score, which were then multiplied. The average sum of the products of each LID was determined in each animal.

[10] = system: 6-OHDA-lesioned rats, forelimb akinesia; assay: Example 2: stepping test; type: in vivo, rat; settings: 60 minutes post L-DOPA
Method: 6-OHDA-induced dopaminergic lesions: Adult male Sprague-Dawley rats were randomly assigned to groups receiving either a 6-OHDA or sham lesion. All rats received desipramine (10 mg/kg i.p.) 30 min prior to surgery to prevent the lesioning of norepinephrine neurons by 6-OHDA. A single injection of 6-OHDA (8 μg of 6-OHDA free base in 4 p of 0.1% ascorbic acid) was delivered into the right medial forebrain bundle (coordinates taken from bregma: −4.3 mm AP, 1.6 mm ML, −8.3 mm DV). The same experimental treatment was performed for the sham-operated rats using vehicle (4 μl of 0.1% ascorbic acid). A standard stepping test was used to evaluate the effectiveness of the 6-OHDA lesion.
Rats were treated for 5 consecutive days/week (Mon-Fri), for 2 weeks. On the second day of each week, stepping tests were performed prior to drug administration, and 60 minutes post L-DOPA treatment.

[11] = system: L-DOPA-primed 6-OHDA-lesioned rats; 5-HT1AR; settings: VZD 10 mg/kg, WAY 0.5 mg/kg, LD 6 mg/kg s.c.
[12] = system: L-DOPA-primed 6-OHDA-lesioned rats; 5-HT1BR; assay: Experiment 3: AIMs with 5-HT1BR antagonist NAS-181; type: in vivo, rat; settings: VZD 10 mg/kg, NAS-181 3.0 mg/kg, LD 6 mg/kg s.c.
Method: All 6-OHDA-lesioned rats (n=17) were tested on the FAS prior to treatment regimens to establish baseline motor performance. Three-weeks post-surgery, all rats were primed with L-DOPA (6 mg/kg, s.c.) for 14 days.
Beginning 10 min post-treatment, a trained and blinded observer assigned a severity score (0-4) to each of the ALO AIMs based on 1 min ratings every 10 min for 3 h: 0, not present; 1, present from 1-29 s; 2, present 30-59s; 3, present all 60 s, but interruptible by a cylinder tap; 4, present 60 s and not interruptible by a cylinder tap.

[13] = Dorsal Raphe Nucleus, VZD(0)+LD(6) mg/kg s.c.

Br.CCCN(CCC)C1CCc2cccc(O)c2C1 (stereo not drawn) [8-OH-DPAT, 8-hydroxy-2-(dipropylamino) tetralin hydrobromide]
spontaneous firing of DRN 5-HT neuron (DRN 5-HT neurons): suppressed the spontaneous firing of a DRN neuron | increase of [35S]GTPyS binding compared to vehicle [1]: eightfold

N[C@@H](Cc1ccc(O)c(O)c1)C(=O)O [L-DOPA, L-3,4-dihydroxyphenylalanine]
LID during 14 days of priming [2]: significantly greater LID | FAS motor performance vs baseline [3]: significant improvements on motor performance over baseline | 5-HIAA [4, 13]: 2778 pg/mg wet tissue weight | 5-HT [4, 13]: 5457 pg/mg wet tissue weight | 5-HT Turnover [4, 13]: 0.57 | DA [4, 13]: 112 pg/mg wet tissue weight | DA Turnover [4, 13]: 10.3 | DOPAC [4, 13]: 1114 pg/mg wet tissue weight | DRN DA, DOPAC and DA Turnover ([4]; LD 6 mg/kg): significantly increased DRN levels of DA, DOPAC and DA Turnover | FAS vs baseline [5]: significant increases in motor ability on each test day | % intact stepping [6]: reversed lesion-induced motor deficits | fraction crossing the blood-brain barrier [7]: 5-10% | striatal PPE mRNA ([8]; lesioned striata, LD 6 mg/kg, VZD 20 mg/kg, day 23): significantly increased PPE in the lesioned striata | striatal PPD mRNA ([8]; lesioned striata, LD 6 mg/kg, VZD 10/20 mg/kg, day 23): significantly increased PPD in the lesioned striata | striatal c-Fos mRNA ([8]; lesioned striata, LD 6 mg/kg, VZD 10 or 20 mg/kg, day 23): potentiated c-Fos in lesioned striata | striatal PPT mRNA ([8]; rat, in vivo): did not increase striatal PPT

CN(C)CCC[C@@]1(c2ccc(F)cc2)OCc2cc(C#N)ccc21 [Escitalopram]
LIDs severity [9]: significantly reduced LIDs severity | forelimb akinesia / L-DOPA therapeutic (prokinetic) efficacy [10]: affected L-DOPA therapeutic efficacy

COc1ccccc1N1CCN(CCN(C(=O)C2CCCCC2)c2ccccn2)CC1.O=C(O)/C=C\C(=O)O [WAY100635, N-[2-[4(2-Methoxyphenyl)-1-piperazinyl]ethyl]-N-2-pyridinylcyclohexanecarboxamide maleate salt]
LIDs severity [9]: reverses the beneficial effects of vilazodone on LIDs | spontaneous firing of DRN 5-HT neuron (DRN 5-HT neurons): return to baseline firing | summed ALO AIMs [11]: partially reversed the anti-dyskinetic efficacy of Vilazodone

C1=C(CN2CCOCC2)COc2c1cccc2OC[C@H]1CNCCO1.CS(=O)(=O)O [NAS-181, (R)-(+)-2-(3-morpholinomethyl-2H-chromen-8-yl) oxymethyl-morpholine methane-sulfonate]
ALO AIMs [12]: did not significantly alter AIMs or their reduction by Vilazodone
